Assay results reported in article PMC9596850, “Tonsillar Microbiome‐Derived Lantibiotics Induce Structural Changes of IL‐6 and IL‐21 Receptors and Modulate Host Immunity” (Advanced Science, 2022).
Peptide text beside a SMILES is read from it.

Experiments:
murine IL‐21R = target: T1, murine IL‐21R (Mus musculus, UniProt Q9JHX3); assay: SPR binding to immobilized murine IL‐21R
T1 construct: Fc region of human IgG1 (C); purchased Sino Biological
Procedure: The binding affinities of salivaricins to IL‐6Rα or IL‐21R were assayed using the Biacore 8K instrument (GE Healthcare). Murine IL‐6Rα (20 nM, abcam) or IL‐21R ([…], Sino Biological) were immobilized on a CM5 sensor chip using standard amine‐coupling at 25 °C with PBS‐P running buffer (GE Healthcare), as described previously.^[ [39] ^] […] Regeneration was achieved by extended washing with NaOH (5 mm) after each sample injection. The dissociation constants (KD) of salivaricins were obtained by fitting the data sets to steady‐state affinity model using Biacore 8K Evaluation Software.

[1] = test system: collagen‐induced arthritis (CIA) model mice; assay: Collagen‐induced arthritis (CIA) mice, prophylactic regimen; format: in vivo, DBA/1 mice; settings: prophylactic administration in CIA mice
Procedure: Male DBA/1 mice (6–8 weeks old) were purchased from Huafukang Co. Ltd. (Beijing, China) and fed under specific pathogen‐free conditions. All experiments were carried out in accordance with guidelines prescribed by the Animal Care and Use Committee of Peking University People's Hospital (2019PHE047). CIA induction was established by following a previously published protocol.^[ [41] ^] Briefly, DBA/1 mice were immunized intradermally at the base of the tail with 200 µg of bovine type II collagen (CII, Chondrex) emulsified in complete Freund's adjuvant (Sigma‐Aldrich, St Louis, MO, USA) in equal volumes. Three weeks later, a booster was delivered using 100 µg CII emulsified in Freund's incomplete adjuvant. Mice were monitored for signs of arthritis after the booster immunization. Clinical score was assessed by using the following system as detailed previously:^[ [41] ^] […]
The paws from each mouse were collected and fixed in 4% paraformaldehyde (PFA) for 48 h, then scanned using a Micro‐CT scanner (Quantum FX, Caliper, USA). […] A microscopic assessment of sagittal sections was performed and histopathological changes were scored based on the following previously reported parameters:^[ [42] ^] […]

[2] = Table S4, immobilized mIL-21R, Steady state affinity model

T1 sequence (Q9JHX3 20-529): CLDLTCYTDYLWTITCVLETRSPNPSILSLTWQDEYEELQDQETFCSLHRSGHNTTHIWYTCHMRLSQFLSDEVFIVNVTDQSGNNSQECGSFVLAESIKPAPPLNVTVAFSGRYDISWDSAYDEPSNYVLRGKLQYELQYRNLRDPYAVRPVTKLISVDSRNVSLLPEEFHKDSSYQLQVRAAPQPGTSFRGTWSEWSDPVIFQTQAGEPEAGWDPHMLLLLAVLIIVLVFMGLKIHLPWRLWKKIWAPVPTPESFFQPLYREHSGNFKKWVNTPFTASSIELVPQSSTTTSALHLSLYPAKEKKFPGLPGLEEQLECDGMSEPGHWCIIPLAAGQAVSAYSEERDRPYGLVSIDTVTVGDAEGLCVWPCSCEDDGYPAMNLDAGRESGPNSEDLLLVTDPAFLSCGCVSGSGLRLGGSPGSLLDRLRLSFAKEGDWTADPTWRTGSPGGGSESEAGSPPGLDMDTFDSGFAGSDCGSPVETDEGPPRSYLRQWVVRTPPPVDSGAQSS

CC[C@H](C)[C@H](NC(=O)[C@@H](NC(=O)[C@H](C)NC(=O)[C@H](Cc1ccccc1)NC(=O)[C@H](Cc1c[nH]c2ccccc12)NC(=O)CNC(=O)[C@@H](NC(=O)CNC(=O)[C@H](CCCNC(=N)N)NC(=O)[C@@H](N)CCCCN)[C@@H](C)O)[C@@H](C)O)C(=O)N[C@H](C(=O)N[C@@H](CC(=O)O)C(=O)N[C@@H](CC(=O)O)C(=O)N[C@@H](CS)C(=O)N1CCC[C@H]1C(=O)N[C@@H](CC(N)=O)C(=O)N[C@@H](CO)C(=O)N[C@H](C(=O)N[C@@H](Cc1ccccc1)C(=O)N[C@H](C(=O)N[C@@H](CS)C(=O)N[C@@H](CS)C(=O)O)C(C)C)C(C)C)[C@@H](C)O [salivaricin A2] (H-KRGTGWFATITDDCPNSVFVCC-OH)
Kd (murine IL‐21R; Figure 5D legend, mutant experiment, analyte 12.5–800 µM, immobilized murine IL‐21R 20 nM): 29.4 µM | Kd (murine IL‐21R; [2]): 12.6 µM | body weight [1]: without affecting body weight

CC[C@H](C)[C@H](NC(=O)[C@@H](NC(=O)CNC(=O)CNC(=O)CN)C(C)C)C(=O)N[C@@H](CCC(N)=O)C(=O)N[C@H](C(=O)N[C@H](C(=O)N[C@@H](CO)C(=O)N[C@@H](Cc1c[nH]cn1)C(=O)N[C@@H](CCC(=O)O)C(=O)N[C@@H](CS)C(=O)N[C@@H](CCCNC(=N)N)C(=O)N[C@@H](CCSC)C(=O)N[C@@H](CC(N)=O)C(=O)N[C@@H](CO)C(=O)N[C@@H](Cc1c[nH]c2ccccc12)C(=O)N[C@@H](CCC(N)=O)C(=O)N[C@@H](Cc1ccccc1)C(=O)N[C@@H](CC(C)C)C(=O)N[C@@H](Cc1ccccc1)C(=O)N[C@H](C(=O)N[C@@H](CS)C(=O)N[C@@H](CS)C(=O)N[C@@H](CO)C(=O)O)[C@@H](C)O)[C@@H](C)CC)[C@@H](C)O [salivaricin B] (H-GGGVIQTISHECRMNSWQFLFTCCS-OH)
Kd (murine IL‐21R; Figure S8D, salivaricin B mutant experiment, analyte 12.5-800, immobilized murine IL-21R 20 nM): 12.6 µM | Kd (murine IL‐21R; [2]): 10.1 µM | body weight [1]: without affecting body weight
